Tests used:
[1] = test system: rice; test: Treatment of soil under submerged condition, pre-emergence (Test 4), injury; type: in vivo; conditions: 30 g ai/a granule, 30 days later
Method in brief: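 Flooded soil pots; weeds sown/planted, rice transplanted (2 pairs, 2–3 leaf), greenhouse. Granule applied day 1, pre-emergence of weeds. Scored at 30 d for weed damage and rice injury.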

[2] = test system: johnsongrass; test: Upland soil application test (Test 2); type: in vivo; conditions: 30 g ai/a, soil spray before emergence, 30 days later
Method in brief: (§1)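 Damage was graded 30 days after treatment by comparing air-dried plant weight with that of plants in untreated pots. Test compound, given as a diluted wettable powder, had been sprayed on the soil surface one day after sowing, before any weeds emerged.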

[3] = test system: foxtail meadow; test: Upland soil application test (Test 2); type: in vivo; conditions: 30 g ai/a, soil spray before emergence, 30 days later
Method in brief: as §1

[4] = test system: large crabgrass; test: Upland soil application test (Test 2); type: in vivo; conditions: 30 g ai/a, soil spray before emergence, 30 days later
Method in brief: as §1

[5] = test system: green foxtail; test: Upland soil application test (Test 2); type: in vivo; conditions: 30 g ai/a, soil spray before emergence, 30 days later
Method in brief: as §1

[6] = test system: common lambsquarters; test: Upland soil application test (Test 2); type: in vivo; conditions: 30 g ai/a, soil spray before emergence, 30 days later
Method in brief: as §1

[7] = test system: barnyardgrass; test: Upland soil application test (Test 2); type: in vivo; conditions: 30 g ai/a, soil spray before emergence, 30 days later
Method in brief: as §1

[8] = test system: redroot pigweed; test: Upland soil application test (Test 2); type: in vivo; conditions: 30 g ai/a, soil spray before emergence, 30 days later
Method in brief: as §1

[9] = test system: johnsongrass; test: Upland foliar application test (Test 3); type: in vivo; conditions: 30 g ai/a, foliar spray at 2-3 leaves, 30th day
Method in brief: (§2)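 Plants were grown from seed in upland-field soil in a greenhouse. At the 2-3 leaf stage, an emulsion of each compound, diluted with water, was sprayed on the foliage at a rate equal to 5 l per are with a pressure-operated ULV sprayer. Damage and crop injury were scored on day 30.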

[10] = test system: foxtail meadow; test: Upland foliar application test (Test 3); type: in vivo; conditions: 30 g ai/a, foliar spray at 2-3 leaves, 30th day
Method in brief: as §2

[11] = test system: large crabgrass; test: Upland foliar application test (Test 3); type: in vivo; conditions: 30 g ai/a, foliar spray at 2-3 leaves, 30th day
Method in brief: as §2

[12] = test system: green foxtail; test: Upland foliar application test (Test 3); type: in vivo; conditions: 30 g ai/a, foliar spray at 2-3 leaves, 30th day
Method in brief: as §2

[13] = test system: common lambsquarters; test: Upland foliar application test (Test 3); type: in vivo; conditions: 30 g ai/a, foliar spray at 2-3 leaves, 30th day
Method in brief: as §2

[14] = test system: barnyardgrass; test: Upland foliar application test (Test 3); type: in vivo; conditions: 30 g ai/a, foliar spray at 2-3 leaves, 30th day
Method in brief: as §2

[15] = test system: redroot pigweed; test: Upland foliar application test (Test 3); type: in vivo; conditions: 30 g ai/a, foliar spray at 2-3 leaves, 30th day
Method in brief: as §2

[16] = test system: ALS (acetolactate syntase); test: ALS enzyme assay (Test 1); type: biochemical, pea; conditions: 1,000 ppm (0.5 mg/0.5 ml)
Method in brief: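 Partially purified ALS from dark-grown pea and barnyardgrass seedlings incubated 1 h at 30° C with pyruvate, TPP, MgCl2 and FAD. Compounds tested at 1,000 ppm (0.5 mg/0.5 ml). Acetoin formed detected colorimetrically at 525 nm via creatine/α-naphthol, relative to blank and acid-stopped controls.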

Row | Structure (SMILES) | Injury Rice [1] | Herbicidal effects Johnsongrass [2] | Herbicidal effects Foxtail meadow [3] | Herbicidal effects Large crabgrass [4] | Herbicidal effects Green foxtail [5] | Herbicidal effects Common lambsquarters [6] | Herbicidal effects Barnyardgrass [7] | Herbicidal effects Redroot pigweed [8] | Herbicidal effects Johnsongrass [9] | Herbicidal effects Foxtail meadow [10] | Herbicidal effects Large crabgrass [11] | Herbicidal effects Green foxtail [12] | Herbicidal effects Common lambsquarters [13] | Herbicidal effects Barnyardgrass [14] | Herbicidal effects Redroot pigweed [15] | Inhibitory activity (%) Pea [16]
1 | COc1cc(OC)nc(Oc2ccccc2C=NOCc2cccc(C)c2)n1 [compound 20] | 0 (91-100 (No damages)) | 5 (0-5 (Death)) | 5 (0-5 (Death)) | 5 (0-5 (Death)) | 5 (0-5 (Death)) | 4 (6-10 (Severe damages)) | 3 (11-40 (Medium damages)) | 5 (0-5 (Death)) | 5 (0-5 (Death)) | 5 (0-5 (Death)) | 5 (0-5 (Death)) | 5 (0-5 (Death)) | 4 (6-10 (Severe damages)) | 5 (0-5 (Death)) | 5 (0-5 (Death)) | 0%
2 | COc1cc(OC)nc(Oc2ccccc2C=NOC(C)c2ccccc2)n1 (stereo not shown) [compound 21] | 0 (91-100 (No damages)) | 4 (6-10 (Severe damages)) | 3 (11-40 (Medium damages)) | 4 (6-10 (Severe damages)) | 4 (6-10 (Severe damages)) | 3 (11-40 (Medium damages)) | 3 (11-40 (Medium damages)) | 3 (11-40 (Medium damages)) | 5 (0-5 (Death)) | 3 (11-40 (Medium damages)) | 4 (6-10 (Severe damages)) | 4 (6-10 (Severe damages)) | 3 (11-40 (Medium damages)) | 3 (11-40 (Medium damages)) | 3 (11-40 (Medium damages)) | 0%
3 | COc1cc(OC)nc(Oc2ccccc2C=NOCc2cccc3ccccc23)n1 [compound 22] | 0 (91-100 (No damages)) | 4 (6-10 (Severe damages)) | 4 (6-10 (Severe damages)) | 3 (11-40 (Medium damages)) | 4 (6-10 (Severe damages)) | 3 (11-40 (Medium damages)) | 3 (11-40 (Medium damages)) | 3 (11-40 (Medium damages)) | 5 (0-5 (Death)) | 5 (0-5 (Death)) | 5 (0-5 (Death)) | 5 (0-5 (Death)) | 4 (6-10 (Severe damages)) | 5 (0-5 (Death)) | 5 (0-5 (Death)) | 0%
4 | COc1cc(OC)nc(Oc2ccccc2C=NOCCc2ccccc2)n1 [compound 23] | 0 (91-100 (No damages)) | 4 (6-10 (Severe damages)) | 3 (11-40 (Medium damages)) | 3 (11-40 (Medium damages)) | 3 (11-40 (Medium damages)) | 4 (6-10 (Severe damages)) | 3 (11-40 (Medium damages)) | 3 (11-40 (Medium damages)) | 5 (0-5 (Death)) | 4 (6-10 (Severe damages)) | 3 (11-40 (Medium damages)) | 4 (6-10 (Severe damages)) | 3 (11-40 (Medium damages)) | 3 (11-40 (Medium damages)) | 3 (11-40 (Medium damages)) | 0%
